Experimental data published in US20260207618A1, “PYRIMIDINE CARBOXAMIDE COMPOUNDS” (Acrivon Therapeutics, Inc., priority 2022, published 2026).

Tests used:
[1] = tested on: Cdk1 phosphorylated on tyrosine 15; assay: High-content imaging of pCdk1 Y15 by immunofluorescence in ACHN cells; type: cell-based; details: Homo sapiens, high-content imaging (IF), 4 h, 7 to 5000 nM, read-out: CDK1 Tyr15 Phosphorylation EC50 (IC50)
Procedure: ACHN renal cell carcinoma cell line (ATCC) was cultured in Minimum Essential Medium Eagle supplemented with 10% fetal calf serum (Sigma), 1% Penicillin-Streptomycin and 10 mM HEPES buffer (HyClone). Cell cultures were kept in a humidified incubator at 37° C. and 5% CO2. Cells were routinely tested for Mycoplasma contamination.
High-content imaging of ACHN renal cell carcinoma cells was used for quantification of CDK1 phosphorylated on tyrosine 15 by immunofluorescence (“IF”). 20 000 cells per well were seeded in tissue culture treated 96 well plates and treated with compounds at concentrations ranging from 7 to 5000 nM for 4 h. Cells were fixated for 15 minutes in 4% paraformaldehyde solution, washed in PBS and permeabilized using 0.2% Triton X-100. Blocking was performed for 1 h at RT using Blocker FL Fluorescent Blocking Buffer (Thermo Scientific), thereafter cells were incubated with primary antibody (rabbit anti-pCDK1 Y^15, #4539, Cell Signaling Technology) at 4° C. ON. Alexa Fluor Plus 647 labelled goat anti-rabbit (A32733. Thermo Scientific) was used as secondary antibody. After washing in PBS, nuclei were stained with DAPI solution for 10 min at RT, protected from light. Cells were imaged using an ImageXpress Pico automated imaging system and CellReporter Xpress software (Molecular Devices). The percentage cells with nuclear positivity for pCdk1 Y^15 compared to DMSO control was determined for each well and drug dose response curves and EC50 values were calculated and visualized using GraphPad Prism.

[2] = molecular target: T1, recombinant human Wee1A kinase (Homo sapiens, UniProt P30291); assay: LanthaScreen Europium (Eu) Kinase Binding Assay, Wee1A kinase (TR-FRET tracer displacement); details: 30 nM tracer 178, 5 nM Wee1A kinase, 60 minutes at room temperature
T1 construct: full length Wee1A kinase was expressed by baculovirus in insect cells; purchased Invitrogen PV3817; host or cells: insect cells (baculovirus)
T1 sequence (P30291 whole entry): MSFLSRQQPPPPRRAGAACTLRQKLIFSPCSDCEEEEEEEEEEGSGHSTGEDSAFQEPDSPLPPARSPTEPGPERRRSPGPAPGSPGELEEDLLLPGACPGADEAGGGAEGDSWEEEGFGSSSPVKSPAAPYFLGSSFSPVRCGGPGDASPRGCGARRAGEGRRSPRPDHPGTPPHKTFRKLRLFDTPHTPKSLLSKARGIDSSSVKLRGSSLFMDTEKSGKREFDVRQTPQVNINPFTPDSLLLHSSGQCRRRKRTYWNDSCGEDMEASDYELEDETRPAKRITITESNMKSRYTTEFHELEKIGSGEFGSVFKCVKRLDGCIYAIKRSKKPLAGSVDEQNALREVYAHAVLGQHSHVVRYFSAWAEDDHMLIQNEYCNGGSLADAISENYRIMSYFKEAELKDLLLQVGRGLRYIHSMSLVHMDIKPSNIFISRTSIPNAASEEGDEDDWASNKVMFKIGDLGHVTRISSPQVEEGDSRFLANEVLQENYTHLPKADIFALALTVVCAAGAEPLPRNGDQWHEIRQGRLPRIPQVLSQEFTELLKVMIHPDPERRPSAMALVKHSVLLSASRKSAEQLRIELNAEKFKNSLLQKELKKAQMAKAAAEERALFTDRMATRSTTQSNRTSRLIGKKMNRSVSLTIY
Source text: We used a LanthaScreen Europium (Eu) Kinase Binding Assay to determine the binding of provided compounds to Wee1A kinase. The assay utilizes an Alexa Fluor 647-labeled ATP competitive kinase tracer that binds to the ATP binding site of a GST-tagged Wee1A kinase, while a europium (Eu) labeled antibody binds to the GST tag. The proximity of fluorescently labeled kinase tracer and europium (Eu) donor fluorophore antibody leads to fluorescence resonance energy transfer (FRET) to the fluorescence label (acceptor) upon excitation of the Eu (donor). Displacement of tracer from the ATP-binding site by a test compound disturbs the proximity between both labels thus lowering the FRET.
This time resolved-FRET binding assay was performed in white 384-well low volume plates (Greiner, cat #784075), at room temperature in kinase buffer A (KBA; Invitrogen cat #PV3189), consisting of 50 mM HEPES-NaOH (pH 7.5), 0.01% Brij-35, 10 mM MgCl2, and 1 mM EGTA. 5 μl of compound (diluted in reaction buffer, to 1% DMSO) were added to various wells in the plate, followed by 5 μl each of recombinant human Wee1A kinase (full length Wee1A kinase was expressed by baculovirus in insect cells using a N-terminal GST tag (MW: 99.1 kDa) (Invitrogen cat #PV3817) and LanthaScreen Eu-anti-GST antibody (Invitrogen, cat #PV5594). After this, 5 μl of kinase tracer 178 (Invitrogen, cat #PV5593) was added to the plate and the plate was incubated for 60 minutes at room temperature. The final assay conditions in each well were: 30 nM tracer 178, 5 nM Wee1A kinase and 2 nM Eu-labeled antibody in total assay volume of 15 μl. An Envision 2104 (Perkin-Elmer) Plate Reader with the following time-resolve fluorescence setting was used for performing LanthaScreen kinase binding assay. • Excitation 320 nm (30 nm bandpass) • Kinase Tracer Emission 665 nm (10 nm bandpass) • LanthaScreen Eu-anti-Tag Antibody Emission 615 nm (10 nm bandpass) • Dichroic Mirror Instrument dependent • Delay Time 100 μs • Integration Time 200 μs
To calculate the emission ratio, the acceptor/tracer emission ([…]) was divided by the antibody/donor emission ([…]) and the average of duplicate measurement was used for calculations. Data plotting, analysis of binding, and curve fitting was done using Excel add-in XLfit version 5.5.0.5 (IDBS, Guildford, United Kingdom).

Compound | EC50 [1] [nM] | IC50 [2] [nM]
COc1nc(Nc2ccc(OCCCN3CCOCC3)c(C)c2)ncc1C(=O)Nc1c(Cl)cccc1Cl [Compound 148, N-(2,6-dichlorophenyl)-4-methoxy-2-((3-methyl-4-(3-morpholinopropoxy)phenyl)amino)pyrimidine-5-carboxamide] | > 1000 | ≤ 10
COc1nc(Nc2ccc(OCCN(C)C)c(C)c2)ncc1C(=O)Nc1c(Cl)ccc(O)c1C [Compound 149, N-(6-chloro-3-hydroxy-2-methylphenyl)-2-((4-(2-(dimethylamino)ethoxy)-3-methylphenyl)amino)-4-methoxypyrimidine-5-carboxamide] | 100 to 500 | ≤ 10
COc1nc(Nc2ccc(OCCCN3CCOCC3)c(C)c2)ncc1C(=O)Nc1c(Cl)ccc(O)c1C [Compound 150, N-(6-chloro-3-hydroxy-2-methylphenyl)-4-methoxy-2-((3-methyl-4-(3-morpholinopropoxy)phenyl)amino)pyrimidine-5-carboxamide] | > 1000 | ≤ 10
COc1nc(Nc2ccc(OC3CCN(C)CC3)c(C)c2)ncc1C(=O)Nc1c(Cl)ccc(O)c1C [Compound 152, N-(6-chloro-3-hydroxy-2-methylphenyl)-4-methoxy-2-((3-methyl-4-((1-methylpiperidin-4-yl)oxy)phenyl)amino)pyrimidine-5-carboxamide] | 100 to 500 | ≤ 10
COc1nc(Nc2ccc(O[C@@H]3CCN(C)C3)c(C)c2)ncc1C(=O)Nc1c(Cl)ccc(O)c1C [Compound 153, (R)—N-(6-chloro-3-hydroxy-2-methylphenyl)-4-methoxy-2-((3-methyl-4-((1-methylpyrrolidin-3-yl)oxy)phenyl)amino)pyrimidine-5-carboxamide] | ≤ 100 | ≤ 10
COc1nc(Nc2ccc(C3CCN(C)CC3)c(C#N)c2)ncc1C(=O)Nc1c(Cl)ccc(O)c1C [Compound 157, N-(6-chloro-3-hydroxy-2-methylphenyl)-2-((3-cyano-4-(1-methylpiperidin-4-yl)phenyl)amino)-4-methoxypyrimidine-5-carboxamide] | 100 to 500 | 10 to 100
COc1nc(Nc2ccc(N3CCN(C)CC3)c(C)c2)ncc1C(=O)Nc1c(Cl)cccc1Cl [Compound 161] | 100 to 500 | ≤ 10
COc1nc(Nc2ccc(N3CCNCC3)c(C)c2)ncc1C(=O)Nc1c(Cl)cccc1Cl [Compound 162] | 100 to 500 | ≤ 10
COc1nc(Nc2cnn(C[C@@H]3CCNC3)c2)ncc1C(=O)Nc1c(Cl)cccc1Cl [Compound 164] | > 1000 | ≤ 10
COc1nc(Nc2cnn(C[C@H]3CCNC3)c2)ncc1C(=O)Nc1c(Cl)cccc1Cl [Compound 165] | > 1000 | 10 to 100
COc1nc(Nc2ccc3c(cnn3C3CCN(C)CC3)c2)ncc1C(=O)Nc1c(Cl)cccc1Cl [Compound 166] | 100 to 500 | ≤ 10
COc1nc(Nc2ccc(N3CCNCCC3=O)c(C)c2)ncc1C(=O)Nc1c(Cl)cccc1Cl [Compound 167] | 100 to 500 | ≤ 10
C#Cc1cccc(Br)c1NC(=O)c1cnc(Nc2ccc(C3CCNCC3)c(C)c2)nc1OC [Compound 184, N-(2-bromo-6-ethynylphenyl)-4-methoxy-2-((3-methyl-4-(piperidin-4-yl)phenyl)amino)pyrimidine-5-carboxamide] | 100 to 500 | ≤ 10
COc1nc(Nc2ccc(N3CCN(C)CCC3=O)cc2)ncc1C(=O)Nc1c(Cl)cccc1Cl [Compound 185, N-(2,6-dichlorophenyl)-4-methoxy-2-((4-(4-methyl-7-oxo-1,4-diazepan-1-yl)phenyl)amino)pyrimidine-5-carboxamide] | 100 to 500 | ≤ 10
COc1nc(Nc2cnn([C@H]3CCCN(C)CC3)c2)ncc1C(=O)Nc1c(Cl)cccc1Cl [Compound 189, N-2,6-dichlorophenyl-2-{1-[(S)-1-methyl-4-azepanyl]-4-pyrazolylamino}-4-methoxy-5-pyrimidinecarboxamide] | 100 to 500 | ≤ 10
COc1nc(Nc2ccc([C@H]3CCN(C)C3)c(C)c2)ncc1C(=O)Nc1c(Cl)cccc1Br [Compound 192] | 100 to 500 | ≤ 10
COc1nc(Nc2ccc([C@@H]3CCN(C)C3)c(C)c2)ncc1C(=O)Nc1c(Cl)cccc1Br [Compound 193] | ≤ 100 | ≤ 10
COc1nc(Nc2ccc([C@H]3CCCN(C)C3)c(C)c2)ncc1C(=O)Nc1c(Cl)cccc1Br [Compound 196, (R)—N-(2-bromo-6-chlorophenyl)-4-methoxy-2-((3-methyl-4-(1-methylpiperidin-3-yl)phenyl)amino)pyrimidine-5-carboxamide] | 100 to 500 | ≤ 10
COc1nc(Nc2ccc([C@H]3CCCNC3)c(C)c2)ncc1C(=O)Nc1c(Cl)cccc1Br [Compound 198, (R)—N-(2-bromo-6-chlorophenyl)-4-methoxy-2-((3-methyl-4-(piperidin-3-yl)phenyl)amino)pyrimidine-5-carboxamide] | 100 to 500 | ≤ 10
COc1nc(Nc2ccc([C@@H]3CCCNC3)c(C)c2)ncc1C(=O)Nc1c(Cl)cccc1Br [Compound 199, (S)—N-(2-bromo-6-chlorophenyl)-4-methoxy-2-((3-methyl-4-(piperidin-3-yl)phenyl)amino)pyrimidine-5-carboxamide] | 100 to 500 | ≤ 10
CCOc1nc(Nc2cnn([C@@H](C)CNC)c2)ncc1C(=O)Nc1c(Cl)cccc1Br [Compound 201, N-(2-bromo-6-chlorophenyl)-2-{1-[(S)-1-methyl-2-(methylamino)ethyl]-4-pyrazolylamino}-4-ethoxy-5-pyrimidinecarboxamide] | > 1000 | ≤ 10
CCOc1nc(Nc2cnn([C@@H](C)CN(C)C)c2)ncc1C(=O)Nc1c(Cl)cccc1Br [Compound 202, N-(2-bromo-6-chlorophenyl)-2-{1-[(S)-2-(dimethylamino)-1-methylethyl]-4-pyrazolylamino}-4-ethoxy-5-pyrimidinecarboxamide] | > 1000 | ≤ 10
CCOc1nc(Nc2cnn([C@H](C)CNC)c2)ncc1C(=O)Nc1c(Cl)cccc1Br [Compound 203, N-(2-bromo-6-chlorophenyl)-2-{1-[(R)-1-methyl-2-(methylamino)ethyl]-4-pyrazolylamino}-4-ethoxy-5-pyrimidinecarboxamide] | > 1000 | ≤ 10
CCOc1nc(Nc2cnn([C@H](C)CN(C)C)c2)ncc1C(=O)Nc1c(Cl)cccc1Br [Compound 204] | > 1000 | ≤ 10
COc1nc(Nc2ccc(N3CCCN(C)CC3)cc2)ncc1C(=O)Nc1c(Cl)cccc1Br [Compound 206, N-(2-bromo-6-chlorophenyl)-4-methoxy-2-[p-(4-methyl-1,4-diazepan-1-yl)phenylamino]-5-pyrimidinecarboxamide] | 100 to 500 | ≤ 10
COc1nc(Nc2ccc(N3CCCNCC3)cc2)ncc1C(=O)Nc1c(Cl)cccc1Br [Compound 207, 2-((4-(1,4-diazepan-1-yl)phenyl)amino)-N-(2-bromo-6-chlorophenyl)-4-methoxypyrimidine-5-carboxamide] | 100 to 500 | ≤ 10
